Experimental data taken from ChEMBL document CHEMBL6127093, “The evolution of small-molecule Akt inhibitors from hit to clinical candidate” (Eur J Med Chem, 2024).
Values after ≈ are worked out from the molar mass of the structure shown. Values belong to the molecule of their own block, whether it stands above or below them.

Experiments:
[1] = Antiproliferative activity against human KHOS-240S cells assessed as reduction in cell viability incubated for 24 hrs by MTT assay; assay type: functional, cell-based
KOSC-2 = assay: Antiproliferative activity against human KOSC-2 cells assessed as reduction in cell viability incubated for 24 hrs by MTT assay; assay type: functional, cell-based; conditions: KOSC-2, 24 h
[2] = Antiproliferative activity against human 95-D cells assessed as reduction in cell viability incubated for 24 hrs by MTT assay; assay type: functional, cell-based
[3] = Metabolic stability in rat hepatocyte assessed as intrinsic clearance; assay type: ADME, cell-based; conditions: hepatocytes
[4] = Volume of distribution at steady state in dog at 1 mg/kg, iv; assay type: ADME, organism-based, Canis lupus familiaris; conditions: in vivo, read-out: Vdss
[5] = Volume of distribution at steady state in rat at 1 mg/kg, iv; assay type: ADME, organism-based; conditions: in vivo, read-out: Vdss
[6] = Metabolic stability in mouse hepatocyte assessed as intrinsic clearance; assay type: ADME, cell-based; conditions: hepatocytes
[7] = Clearance in Beagle dog at 0.5 mg/kg, iv; assay type: ADME, organism-based, Canis lupus familiaris; conditions: in vivo
[8] = Volume of distribution at steady state in mouse at 5 mg/kg, iv; assay type: ADME, organism-based; conditions: in vivo, read-out: Vdss
in vivo [9] = conditions: mouse
in vivo [10] = conditions: rat
[11] = Microsomal stability in human liver microsomes assessed as half life; assay type: ADME, Microsome
[12] = Aqueous solubility of compound at pH 7.4; assay type: physicochemical; conditions: buffer
[13] = Oral bioavailability in CD-1 mouse at 5 mg/kg measured for 24 hrs by LC-MS/MS analysis; assay type: ADME, organism-based; conditions: in vivo
[14] = Half life in Sprague-Dawley rat at 2 mg/kg, iv by LC-MS/MS analysis; assay type: ADME, organism-based; conditions: in vivo
PC-3 [15] = assay: Antitumor activity against human PC-3 cells xenografted in CD-1 mouse assessed as tumor growth inhibition at 100 mg/kg, po bid administration relative to control; assay type: functional; conditions: read-out: TGI
PC-3 [16] = assay: Antitumor activity against human PC-3 cells xenografted in mouse assessed as inhibition of tumor growth at 50 mg/kg, po administered for 15 days relative to control; assay type: functional; conditions: PC-3, 360 h, time 15 day, read-out: TGI

SMILES: Cn1nccc1-c1ccc(C(=O)N[C@@H]2CNCC[C@H]2c2ccc(F)c(F)c2)c(F)c1
- IC50 [1]: 7.47 µM
- IC50 (KOSC-2): 7.47 µM
- IC50 [2]: 1.03 µM

SMILES: NC1(C(=O)NCc2ccc(Cl)cc2)CCN(c2ncnc3[nH]ccc23)CC1
- CLH [3]: 19 µL/min
- Vd [4]: 2 L/kg
- Vd [5]: 3.1 L/kg
- CLH [6]: 10 µL/min
- clearance [7]: 2 mL/min/kg
- Vd [8]: 2.8 L/kg

SMILES: NC1(C(=O)N[C@@H](CCO)c2ccc(Cl)cc2)CCN(c2ncnc3[nH]ccc23)CC1 [CAPIVASERTIB]
- IC50 [1]: 40.4 µM
- clearance (in vivo [9]): 86 mL/min/kg
- IC50 (KOSC-2): 40.4 µM
- IC50 [2]: 2.32 µM
- clearance (in vivo [10]): 37 mL/min/kg

SMILES: Cc1c(NCCN2CCCC2)cc(C(=O)CCC(F)(F)F)cc1N1CCN(c2ncnc3[nH]nc(Br)c23)CC1 [XL-418]
- inhibition in vivo at 100 mg/kg (PC-3 [15]): 90%
- inhibition in vivo at 50 mg/kg (PC-3 [16]): 52%

Other lines, results leading:

- half-life [11]: 0.917 h
SMILES: Nc1ncccc1-c1nc2ccc(-c3ccccc3)nc2n1-c1ccc(C2(N)CCC2)cc1 [MIRANSERTIB]

- solubility [12]: 17 µg/mL (≈ 37.8 µM)
- bioavailability [13]: 10%
- half-life [14]: 3.9 h
SMILES: NC(=O)c1cccc2c(N[C@H](CN3CCC3)c3ccc(Cl)c(C(F)(F)F)c3)ncnc12 [RUPITASERTIB]
